Source: patent US12162836B2, “N-acyl-{4-[(4-aryl-phenyl)sulfonylmethyl]piperidine} compounds and their therapeutic use” (Modern Biosciences Limited, priority 2019, dated 2024)

Tests used:
[1] = Rodent Pharmacokinetics Studies; type: in vivo, rat; conditions: male Han Wistar rats; for i.v. AUC: 0.25 mg/kg intravenous; for Bioavail, F: oral vs intravenous; for half-life: rat, plasma
Source text: Absorption and metabolic stability were studied using an in vivo pharmacokinetics assay.
[…] Test compounds were formulated in 0.5% carboxymethylcellulose (CMC)/0.1% Tween-80 for administration via the oral route, or in 5% DMSO/10% solutol in saline for administration via the intravenous route. For compound HMC-C-01-A the oral administration was formulated in 2% dimethylacetamide/20% hydroxypropyl-β-cyclodextrin in water. Animals were given free access to food throughout the study except for fasting overnight and until 2 hours post dose on the day of dosing.
Blood samples were taken from the retro-orbital plexus at the following time points and placed in microtubes containing 20% K2EDTA solution:
Oral Dosing: predose; 0.25, 0.5, 1, 2, 4, 6, 8, 12 and 24 hours post dose.
Blood samples were centrifuged to obtain plasma, which was transferred to a separate container and frozen at −20° C.
For analysis, samples were thawed at room temperature and prepared by protein precipitation with acetonitrile spiked with internal standard (500 ng/mL glipizide) in the ratio 1:4 with plasma.
The pharmacokinetic parameters for the test compounds were calculated by Phoenix WinNonlin version 8.0 (Certara, CA) using standard non-compartmental methods. Peak plasma concentrations (Cmax) and time of the peak plasma concentration (Tmax) were the observed values. The area under the plasma concentration-time curve (AUC) was determined by use of the linear trapezoidal rule up to the last measurable concentration (AUClast) and thereafter by extrapolation of the terminal elimination phase to infinity (AUCinf). The elimination phase half-life (t1/2) was calculated as 0.693/kel.

human hepatocytes = assay: Human Hepatocyte Stability; type: in vitro ADME; conditions: for metabolic stability (in words): human hepatocytes
Method: (§1) Metabolic stability of test compounds was measured by determination of the rate of disappearance of the compound when incubated in the presence of human hepatocytes, a primary source of the most important enzymes (cytochrome P450s) involved in drug metabolism. Study of drug stability in the presence of primary hepatocytes is accepted as a valuable model permitting rapid prediction of in vivo drug stability.
(§2) Human hepatocytes were obtained from a commercial source and viability was assessed using a trypan blue solution prior to use. Test compounds (final concentration 1 μM, 0.1 DMSO, 0.9% acetonitrile) or a marker (diclofenac or diltiazem, final assay concentration 1 μM, 0.1% DMSO, 0.9% acetonitrile) were incubated with pooled hepatocytes for a 60 minute period and samples removed at up to 6 time points and analysed by LC-MS/MS for the presence/amount of test compounds.
(§3) Each compound was incubated for 0, 5, 15, 30, 45, or 60 minutes. The reactions were stopped by the addition of methanol containing an internal standard (1 μM Tolbutamide) at the appropriate time points, mixed and placed at −20° C. for 1 hour to quench and allow protein to precipitate. All samples were centrifuged (2500× g, 20 minutes, 4° C.). The aliquots were analysed using LC-MS/MS. Reactions were performed in duplicate at 37° C.
(§4) Data were processed, and the results plotted as In(concentration) vs. time. The elimination rate constant (slope of the regression line, k) was calculated using the following formula, where C(t) is the concentration at time t and C(0) is the starting concentration:
(§5) The half-life (t1/2) was calculated using the following formula: […]
(§6) The intrinsic clearance (Clint) was calculated using the following formula, where [cell] is the hepatocyte concentration in the assay: […]

[2] = test system: Thp1 human monocytic cells; assay: Thp1 Monocyte ATP Production Assay (ATPlite); type: cell-based; conditions: for IC50: Thp1 cells, 24 hour incubation, 9-point concentration range from 10 μM to 10 nM, mean of 2 independent experiments; for potency in the Thp1 monocytic ATP assay (in words): as compared to the reference compounds
Method in brief: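 Thp1 cells in glucose-free RPMI-1640 with 1% FBS were treated with compounds for 24 h at 37 °C/5% CO2, then ATP measured by ATPlite luminescence. Signal expressed as % of control viability; IC50 from 4-parameter fit, mean of two experiments.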

[3] = Human Hepatocyte Stability; type: in vitro ADME; conditions: pooled human hepatocytes, 1 μM, 60 minute incubation; for half-life at 1 μM: read-out: Human t1/2
Method: as §1, §2, §3, §4, §5, §6

[4] = pooled human hepatocytes, 1 μM, 60 minute incubation

CC1(O)CCC(NS(=O)(=O)c2ccc(-c3ccc(F)cc3F)cc2)CC1 (stereo not drawn) [ABD899, reference compound]
T1/2 [1]: 10.8 h | i.v. AUC [1]: 2133 ng/mL/min | p.o. AUC ([1]; dosed at 5 mg/kg orally): 10740 ^(4) ng/mL/min | Bioavail, F [1]: 50% | Human Clint (human hepatocytes; [4]): 9 uL/min/million cells | Human t1/2 (human hepatocytes; [4]): 2.48 h | IC50 [2]: 200 nM

CC(=O)N1CCC(CS(=O)(=O)c2ccc(-c3ccc(F)cc3F)cc2)CC1 [NASMP-01, 1-(4-(((2′,4′-Difluoro-[1,1′-biphenyl]-4-yl)sulfonyl)methyl)piperidin-1-yl)ethan-1-one]
i.v. AUC [1]: 816 ng/mL/min | p.o. AUC ([1]; 1.25 mg/kg orally): 2299 ng/mL/min | Bioavail, F [1]: 56% | half-life [1]: 6.6 h | hepatocyte CLint at 1 μM [3]: < 3 µL/min/1e6 cells | half-life at 1 μM [3]: > 7.67 h | metabolic stability (in words) (human hepatocytes): exceptionally good stability | IC50 ([2]; Homo sapiens, THP-1): 1000 nM | potency in the Thp1 monocytic ATP assay (in words) [2]: excellent potency

CC(=O)N1CCC(CS(=O)(=O)c2ccc(-c3ccc(C#N)cc3Cl)cc2)CC1 [NASMP-05, 4′-(((1-Acetylpiperidin-4-yl)methyl)sulfonyl)-2-chloro-[1,1′-biphenyl]-4-carbonitrile]
metabolic stability (in words) (human hepatocytes): exceptionally good stability | IC50 ([2]; Homo sapiens, THP-1): 1100 nM

CC(=O)N1CCC(CS(=O)(=O)c2ccc(-c3ccc(Cl)cc3C#N)cc2)CC1 [NASMP-06, 4′-(((1-Acetylpiperidin-4-yl)methyl)sulfonyl)-4-chloro-[1,1′-biphenyl]-2-carbonitrile]
i.v. AUC [1]: 349 ng/mL/min | p.o. AUC ([1]; 1.25 mg/kg orally): 3030 ng/mL/min | Bioavail, F [1]: 24% | half-life [1]: 3.3 h | half-life at 1 μM [3]: > 1 h | metabolic stability (in words) (human hepatocytes): exceptionally good stability | IC50 ([2]; Homo sapiens, THP-1): 900 nM

CC(=O)N1CCC(CS(=O)(=O)c2ccc(-c3ccc(C(F)(F)F)cc3F)cc2)CC1 [NASMP-07, 1-(4-(((2′-Fluoro-4′-(trifluoromethyl)-[1,1′-biphenyl]-4-yl)sulfonyl)methyl)piperidin-1-yl)ethan-1-one]
hepatocyte CLint at 1 μM [3]: 1.1 µL/min/1e6 cells | half-life at 1 μM [3]: > 1 h | IC50 ([2]; Homo sapiens, THP-1): 800 nM | potency in the Thp1 monocytic ATP assay (in words) [2]: excellent potency

CC(=O)N1CCC(CS(=O)(=O)c2ccc(-c3c(F)cccc3F)cc2)CC1 [NASMP-09, 1-(4-(((2′,6′-Difluoro-[1,1′-biphenyl]-4-yl)sulfonyl)methyl)piperidin-1-yl)ethan-1-one]
hepatocyte CLint at 1 μM [3]: < 3.4 µL/min/1e6 cells | half-life at 1 μM [3]: > 6.88 h | metabolic stability (in words) (human hepatocytes): exceptionally good stability | IC50 ([2]; Homo sapiens, THP-1): 1400 nM

CC(=O)N1CCC(CS(=O)(=O)c2ccc(-c3ccc(F)cc3F)cc2C(F)(F)F)CC1 [NASMP-12, 1-(4-(((2′,4′-Difluoro-3-(trifluoromethyl)-[1,1′-biphenyl]-4-yl)sulfonyl)methyl)piperidin-1-yl)ethan-1-one]
i.v. AUC [1]: 581 ng/mL/min | p.o. AUC ([1]; 1.25 mg/kg orally): 3160 ng/mL/min | Bioavail, F [1]: >69% | half-life [1]: 5.1 h | metabolic stability (in words) (human hepatocytes): exceptionally good stability | IC50 ([2]; Homo sapiens, THP-1): 100 nM | potency in the Thp1 monocytic ATP assay (in words) [2]: excellent potency

CCC(=O)N1CCC(CS(=O)(=O)c2ccc(-c3ccc(F)cc3F)cc2)CC1 [NASMP-15, 1-(4-(((2′,4′-Difluoro-[1,1′-biphenyl]-4-yl)sulfonyl)methyl)piperidin-1-yl)propan-1-one]
i.v. AUC [1]: 282 ng/mL/min | p.o. AUC ([1]; 1.25 mg/kg orally): 1750 ng/mL/min | Bioavail, F [1]: >62% | half-life [1]: 4.9 h | half-life at 1 μM [3]: > 1 h | metabolic stability (in words) (human hepatocytes): exceptionally good stability | IC50 ([2]; Homo sapiens, THP-1): 600 nM | potency in the Thp1 monocytic ATP assay (in words) [2]: excellent potency
